Assay results from ChEMBL document CHEMBL5614412, “Regulation of protein phosphorylation by PTPN2 and its small-molecule inhibitors/degraders as a potential disease treatment strategy” (Eur J Med Chem, 2024).
Starred links: 1 amine or outer side, 2 acyl side, 3 side chain; linkers in the order of their positions; H or OH if unused. Non-standard residues stand in square brackets, D forms with d. Residues, ends and D or L forms follow the SMILES beside them. ξ: configuration not given here. *: point of attachment. NHCH2(1,3-C6H4)CH2CO = O=C(Cc1cccc(CN[*:1])c1)[*:2]; ξF2Pmp = NC(Cc1ccc(C(F)(F)P(=O)(O)O)cc1)C(=O)O; Benzoyl(3-Br,4-Me) = Cc1ccc(C(=O)*)cc1Br; ξPro(4R-OH) = O=C(O)C1C[C@@H](O)CN1; X2 = Cc1ncsc1-c1ccc([C@H](C)N*)cc1; Tle = CC(C)(C)[C@H](N)C(=O)O; X1 = COc1ccc(CC(=O)*)cc1O

Key:
[1] = test system: B16; experiment: Antiproliferative activity against mouse B16 cells; format: functional, cell-based
[2] = target: T1, Tyrosine-protein phosphatase non-receptor type 1 (Homo sapiens, UniProt P18031); experiment: Inhibition of PTP1B (unknown origin)
T1 sequence (P18031 whole entry): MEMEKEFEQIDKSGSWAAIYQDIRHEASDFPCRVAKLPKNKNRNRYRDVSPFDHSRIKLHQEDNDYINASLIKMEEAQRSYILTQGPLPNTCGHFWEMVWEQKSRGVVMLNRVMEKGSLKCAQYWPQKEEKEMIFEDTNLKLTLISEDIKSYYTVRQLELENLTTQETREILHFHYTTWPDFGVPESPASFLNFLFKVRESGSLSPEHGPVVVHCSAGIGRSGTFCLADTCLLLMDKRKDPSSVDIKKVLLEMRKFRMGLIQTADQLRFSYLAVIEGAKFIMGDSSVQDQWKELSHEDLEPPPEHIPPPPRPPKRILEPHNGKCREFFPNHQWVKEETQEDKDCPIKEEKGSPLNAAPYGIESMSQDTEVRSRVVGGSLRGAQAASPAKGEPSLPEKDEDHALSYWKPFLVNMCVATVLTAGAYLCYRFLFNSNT

[3] = target: T2, Tyrosine-protein phosphatase non-receptor type 2 (Homo sapiens, UniProt P17706); experiment: Inhibition of PTPN2 (unknown origin)
T2 sequence (P17706 whole entry): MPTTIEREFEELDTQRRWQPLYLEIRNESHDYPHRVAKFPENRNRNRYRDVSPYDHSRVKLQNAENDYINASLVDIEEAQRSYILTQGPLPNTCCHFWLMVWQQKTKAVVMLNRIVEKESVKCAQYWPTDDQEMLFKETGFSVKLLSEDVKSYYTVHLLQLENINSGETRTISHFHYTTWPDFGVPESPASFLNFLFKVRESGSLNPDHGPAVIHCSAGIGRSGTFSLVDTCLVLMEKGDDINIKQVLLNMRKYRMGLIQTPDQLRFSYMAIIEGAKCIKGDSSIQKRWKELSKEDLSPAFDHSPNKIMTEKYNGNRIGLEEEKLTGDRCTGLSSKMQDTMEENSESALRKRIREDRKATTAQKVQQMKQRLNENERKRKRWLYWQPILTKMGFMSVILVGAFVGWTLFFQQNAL

[4] = target: Protein cereblon/Tyrosine-protein phosphatase non-receptor type 2 (Homo sapiens, UniProt P17706+Q96SW2); experiment: PROTAC activity at PTPN2/CRBN in HEK293 cells assessed as protein degradation measured for 48 hrs by Western blot analysis; format: cell-based
Protein cereblon/Tyrosine-protein phosphatase non-receptor type 2, sequence (Q96SW2 whole entry, one chain of several): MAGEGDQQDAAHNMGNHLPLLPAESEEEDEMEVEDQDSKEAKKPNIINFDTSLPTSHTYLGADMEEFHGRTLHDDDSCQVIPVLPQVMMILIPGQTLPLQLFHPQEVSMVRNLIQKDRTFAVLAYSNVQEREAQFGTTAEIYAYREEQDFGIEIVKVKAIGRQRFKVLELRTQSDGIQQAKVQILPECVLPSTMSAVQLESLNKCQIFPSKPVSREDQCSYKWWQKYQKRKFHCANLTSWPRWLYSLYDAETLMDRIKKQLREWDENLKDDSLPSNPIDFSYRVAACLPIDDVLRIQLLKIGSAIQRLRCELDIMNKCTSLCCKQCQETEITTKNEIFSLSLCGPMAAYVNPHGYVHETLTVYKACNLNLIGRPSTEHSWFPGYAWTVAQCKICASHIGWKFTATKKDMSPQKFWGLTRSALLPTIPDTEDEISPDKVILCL

[5] = species on record: Homo sapiens; experiment: Selectivity index, ratio of DC50 for PROTAC activity at PTP1B/CRBN in HEK293 cells to DC50 for PROTAC activity at PTPN2/CRBN in HEK293 cells; format: cell-based
[6] = target: Protein cereblon/Tyrosine-protein phosphatase non-receptor type 1 (Homo sapiens, UniProt P18031+Q96SW2); experiment: PROTAC activity at PTP1B/CRBN in HEK293 cells assessed as protein degradation measured for 48 hrs by Western blot analysis; format: cell-based
Protein cereblon/Tyrosine-protein phosphatase non-receptor type 1, sequence (Q96SW2 whole entry, one chain of several): as above

[7] = target: T2, Tyrosine-protein phosphatase non-receptor type 2
Description: Inhibition of human PTPN2 extracted from Escherichia coli BL21 (DE3) by fluorescence based analysis

[8] = target: T2, Tyrosine-protein phosphatase non-receptor type 2; remark: listed apart in the source
Description: Inhibition of full-length human recombinant PTPN2 incubated for 20 mins by mobile shift assay

[9] = Inhibition of PTP1B/PTPN2 (unknown origin) in mouse B16 cells; format: cell-based, Homo sapiens

With `CC[C@@H]1CCN(CCc2cc(O)c(N3CC(=O)NS3(=O)=O)c(F)c2)C1` as the compound, how does the IC50 [1] read?
The IC50 was 130 nM.

For `COc1cc(CC(=O)NC(Cc2ccccc2)C(=O)NC(Cc2ccc(C(F)(F)P(=O)(O)O)cc2)C(=O)N[C@@H](CCCCNC(=O)c2ccc(C)c(Br)c2)C(N)=O)ccc1O` (some centres undefined), which IC50 [2] is on record?
Its IC50 is 120 nM.

What does the source list for `O=C1CN(c2c(O)cc3c(c2F)C[C@H](NCCCC(F)F)CS3)S(=O)(=O)N1`?
IC50 [3]: < 10 nM; IC50 [1]: 160 nM; IC50 [2]: < 10 nM

Which IC50 [3] does the source give for `N#Cc1ccc2cc(Br)c(C(F)(F)P(=O)(O)O)cc2c1` here?
The IC50 was 7.1 nM.

For `Cn1c(=O)n(C2CCC(=O)NC2=O)c2ccc(-c3ccc(CC(=O)Nc4ccc5c(F)c(N6CC(=O)NS6(=O)=O)c(O)cc5c4)cc3)cc21` (centres undefined), which DC50 [4] is on record?
Its DC50 is 10 nM.

Which results are given for `O=C1CN(c2c(O)cc3c(c2F)C[C@H](NCCC(F)F)N3)S(=O)(=O)N1`?
IC50 [3]: 10 nM; IC50 [1]: 700 nM; IC50 [2]: 10 nM

Which results are given for `CCc1ccc(C(=O)NCCCC[C@H](NC(=O)[C@H](Cc2ccc(C(F)(F)P(=O)(O)O)cc2)NC(=O)[C@H](Cc2ccccc2)NC(=O)O[C@H]2C[C@@H](C)CC[C@@H]2C(C)C)C(=O)NCCOCCC(=O)Nc2cccc3c2CN(C2CCC(=O)NC2=O)C3=O)cc1` (some centres undefined)?
Selectivity Index [5]: > 110; DC50 [4]: 35.8 nM

Which results are given for `Cc1ncsc1-c1ccc(C(C)CC(=O)[C@H]2C[C@H](O)CN2C(=O)[C@@H](NC(=O)CCCCCNC(=O)n2cc(-c3ccc4cc(O)c(N5CC(=O)NS5(=O)=O)c(F)c4c3)cn2)C(C)(C)C)cc1` (some centres undefined)?
Selectivity Index [5]: > 60; DC50 [4]: 217 nM; DC50 [6]: 13100 nM

Which Selectivity Index [5] does the source give for `COc1ccc(CC(=O)N[C@@H](Cc2ccccc2)C(=O)NC(Cc2ccc(C(F)(F)P(=O)(O)O)cc2)C(=O)N[C@@H](CCCCNC(=O)c2ccc(C)c(Br)c2)C(=O)NCc2cccc(CC(=O)N[C@H](C(=O)N3C[C@H](O)CC3C(=O)N[C@@H](C)c3ccc(-c4scnc4C)cc3)C(C)(C)C)c2)cc1O` (stereo partly drawn) (X1-F[ξF2Pmp]K(Benzoyl(3-Br,4-Me))[NHCH2(1,3-C6H4)CH2CO][Tle][ξPro(4R-OH)]-X2) here?
The Selectivity Index was 2.1.

What about the DC50 [4] of the same compound?
Its DC50 is 7 nM.

What about the DC50 [6] of the same compound?
Its DC50 is 14.8 nM.

Which IC50 [1] does the source give for `CC(C)CCNC1CNc2cc(O)c(N3CC(=O)NS3(=O)=O)c(F)c2C1` (centres undefined) here?
The IC50 was 1400 nM.

For `CC(C)CCN[C@@H]1C[C@H]2C[C@@H]1c1c2cc(O)c(N2CC(=O)NS2(=O)=O)c1F`, which IC50 [1] is on record?
Its IC50 is 7820 nM.

With `O=C1CN(c2c(O)cc3ccc(NCC4CC4)cc3c2F)S(=O)(=O)N1` as the compound, how does the IC50 [7] read?
Its IC50 is 3.9 nM.

And the IC50 [8]?
Its IC50 is 3.9 nM.

And the EC50 [9]?
The EC50 was 2650 nM.

With `CC1(C)C[C@H](Nc2cccc(-c3sc(C(=O)O)c(OCC(=O)O)c3Cl)c2)CCN1S(=O)(=O)Cc1cccc(NC(=O)N2CCC(c3ccc4c5c(cccc35)C(=O)N4[C@@H]3CCC(=O)NC3=O)CC2)c1` as the compound, how does the DC50 [4] read?
The DC50 was less than 100 nM.

For `CCc1cc(C[C@H](NC(C)=O)C(=O)NCCCCOc2cccc(O)c2C(=O)OC)ccc1N(C(=O)C(=O)O)c1ccccc1C(=O)O`, which IC50 [3] is on record?
The IC50 was 65 nM.

What does the source list for `CC(C)CCN[C@@H]1CCc2cc(O)c(N3CC(=O)NS3(=O)=O)c(F)c2C1` [OSUNPROTAFIB]?
IC50 [7]: 1.8 nM; IC50 [1]: 64 nM; IC50 [8]: 1.8 nM; EC50 [9]: 180 nM

What does the source list for `O=C1CN(c2c(O)cc(NC(=O)NC3CCCCC3)cc2F)S(=O)(=O)N1`?
IC50 [3]: < 5 nM; IC50 [1]: < 5000 nM

Which IC50 [1] does the source give for `CC1(C)CCC[C@H](NCc2cc(O)c(N3CC(=O)NS3(=O)=O)c(F)c2)C1` here?
The IC50 was 770 nM.

Which results are given for `CC1CCN=C(Nc2cc(O)c(N3CC(=O)NS3(=O)=O)c(F)c2)N1` (centres undefined)?
IC50 [3]: 10 nM; IC50 [1]: 5000 nM
